Assay type in all cases: cell-based
In assay [1] the test system is Acinetobacter baumannii AL1851, IpxA mutant; Lipid A deficient (GN_237). The assay can be described thus: MIC broth microdilution, 96-well, visual reading (Example 11). Conditions: for MIC (Test results): Example 11 Table 41; for MIC (Test results) / MIC: GN_237, n=4 replicates; for MIC: Acinetobacter baumannii, read-out: MIC (Test results), Example 11 Table 41. Here is the method:
(§1) The experiment was performed to investigate the antimicrobial activity of cannabidiol (CBD) against an LPS deficient strain (GN_237 Acinetobacter baumannii, IpxA mutant; Lipid A deficient; obtained by colistin selection from base strain ATCC 19606) and its parent strain (GN_034, Acinetobacter baumannii, ATCC 19606).
(§2) All plates had flat bottom wells and were covered with low-evaporation lids.
(§3) Two biological replicates ×2 technical replicates were conducted on separate days (final n=4). Inhibition of bacterial growth was determined visually, where the MIC was recorded as the lowest compound concentration with no visible growth.
(In general: Broth dilution looks for growth in wells or tubes with falling amounts of substance.)

In assay [2] the test system is Acinetobacter baumannii ATCC 19606 Type Strain (GN_034). The assay is described as above. Particulars: GN_034, n=4 replicates; for MIC (Test results): Example 11 Table 41; for MIC: Acinetobacter baumannii, ATCC19606, read-out: MIC (Test results), Example 11 Table 41. The method, then: as §1, §2, §3
Assay [3] concerns Escherichia coli ATCC 25922 (GN_001). The assay is described as follows: MIC micro-broth dilution assay (Example 1 method). Particulars: for MIC: Escherichia coli.
Protocol: (§6) The plates were covered and incubated at 37° C. for 18-20 h.
(§7) Optical density was read at 600 nm (OD600) using Tecan M1000 Pro Spectrophotometer. […] Analysis was performed using Microsoft Excel.
For assay [4], the system named is Acinetobacter baumannii ATCC 19606 (GN_034). The assay can be described thus: MIC micro-broth dilution assay (Example 1 method). Conditions: for MIC: Acinetobacter baumannii.
Protocol: as §6, §7
The subject of assay [5] is Pseudomonas aeruginosa ATCC 27853 (GN_042). The assay is described as follows: MIC micro-broth dilution assay (Example 1 method). Conditions: for MIC: Pseudomonas aeruginosa.
Protocol: as §6, §7
For assay [6], the system named is Klebsiella pneumoniae ATCC 13883 (GN_003 / GN_004). The assay can be described thus: MIC micro-broth dilution assay (Example 1 method). Conditions: for MIC: Klebsiella pneumoniae.
Protocol: as §6, §7
For assay [7], the system named is Klebsiella pneumoniae ATCC 700603. The assay is described as follows: MIC micro-broth dilution assay (Example 1 method). Conditions: Klebsiella pneumoniae. Here is the method:
Methods were as for Example 1. Cannabidiol was tested in combination with cefotetan.
Methods were as for Example 1. Cannabidiol was tested in combination with aztreonam.
Methods were as for Example 1. Cannabidiol was tested in combination with cefepime.
Methods were as for Example 1. Cannabidiol was tested in combination with octapeptin C4.
Methods were as for Example 1. Cannabidiol was tested in combination with Spero SPR206. The experiments were carried out three times.

The subject of assay [8] is Acinetobacter baumannii ATCC 19606. The assay can be described thus: microbe, parasite or virus in culture. The method, then:
(§4) The inoculum was then diluted in CaMHB to give a mid-log phase cultures and 40 μL was added to each well from column 1 to column 18, and column 23. 45 μL of the inoculum was added to each well from column 19 to column 22 to give the final cell density of 5×10^5 CFU/mL. The plates were incubated at 37° C. for 18-20h.
(§5) Optical density was read at 600 nm (OD600) using Gen5 Spectrophotometer. […] Analysis was performed using Microsoft Excel.

Assay [9] relates to Escherichia coli ATCC 25922. The assay is described as follows: microbe, parasite or virus in culture. Here is the method:
as §4, §5

Assay [10] deals with Klebsiella pneumoniae ATCC 700603. The assay can be described thus: microbe, parasite or virus in culture. The method, then:
as §4, §5

The test system of assay [11] is Pseudomonas aeruginosa ATCC 27853. The assay can be described thus: microbe, parasite or virus in culture. The method, then:
as §4, §5

[12] abbreviates: Pseudomonas aeruginosa ATCC 27853.
Setting [13] is: ATCC19606, read-out: Minimum Inhibitory Concentration (MIC), Example 5 Table 19, GN_034, compound alone, replicates.
[14] abbreviates: Example 5 Table 19, GN_034, compound alone, replicates.
[15] abbreviates: Example 10 Table 38, compound alone, replicates.
The mark [16] stands for this setting: Acinetobacter baumannii ATCC 19606.
Where [17] appears, read: Klebsiella pneumoniae ATCC 700603.

≈ marks a conversion by molar mass, not a printed value. Where “and” joins values, the source holds several entries; their conditions need not be identical. Identical values can stand only once. Counter-ions that a name gives are not always drawn. Like-named read-outs stand apart in the source and are kept apart here. Residues, ends and D or L forms follow the SMILES beside them.

As to Teicoplanin, the “MIC (Test results)” value in assay [1] is 0.25 μg/mL (2×) and 0.5 μg/mL; in [2], more than 128 µg/mL.

Turning to `CC(=O)N[C@H](C(=O)N[C@H](CO)C(=O)N[C@H]1CCNC(=O)[C@H]([C@@H](C)O)NC(=O)[C@H](CCN)NC(=O)[C@H](CCN)NC(=O)[C@H](CC(C)C)NC(=O)[C@@H](Cc2ccccc2)NC(=O)[C@H](CCN)NC1=O)[C@@H](C)O` [Spero Potentiator SPR741] (HELM PEPTIDE1{[ac].T.[dS].[Dab].[Dab].[dF].L.[Dab].[Dab].T}$PEPTIDE1,PEPTIDE1,4:R3-10:R2$$$V2.0), the “MIC of Spero Potentiator SPR741” value in [3] (Escherichia coli ATCC 25922, alone) was 64 µg/mL and 128 µg/mL; in assay [4] (Acinetobacter baumannii ATCC 19606, alone), >128 µg/mL and >64 µg/mL; in assay [5] (Pseudomonas aeruginosa ATCC 27853, alone), 64.00 µg/mL and 64 µg/mL; in assay [6] (Klebsiella pneumoniae ATCC 700603 (so in the source), alone) it was >128 µg/mL and >64 µg/mL.

As to `CC1(C)S[C@@H]2[C@H](NC(=O)[C@H](C(=O)O)c3ccsc3)C(=O)N2[C@H]1C(=O)O` [Ticarcillin], the MIC was found to be 8 µg/mL in assay [3] (ATCC25922, read-out: MIC of Ticarcillin); 4 µg/mL in assay [4] (ATCC19606, read-out: MIC of Ticarcillin); 32 µg/mL in assay [5] (ATCC27853, read-out: MIC of Ticarcillin, Pseudomonas aeruginosa ATCC 27853); 128 µg/mL in [6] (ATCC 13883 / ATCC 700603, read-out: MIC of Ticarcillin). For the same molecule, the “MIC of Ticarcillin” value in assay [5] (setting [12]) was determined as 16 µg/mL.

With `CCC[C@@H]1C[C@@H](C(=O)N[C@@H]([C@H]2O[C@H](SC)[C@H](O)[C@@H](O)[C@H]2O)[C@H](C)Cl)N(C)C1` [Clindamycin hydrochloride monohydrate], in assay [1], the MIC is 4 µg/mL; the “MIC (Test results)” value is 4 μg/mL and 8 μg/mL (2×). Further, in assay [2], the MIC was 128 µg/mL; the “MIC (Test results)” value was 128 μg/mL (2×) and >128 μg/mL.

For `C[C@H]1[C@H](NC(=O)/C(=N\OC(C)(C)C(=O)O)c2csc(N)n2)C(=O)N1S(=O)(=O)O` [Aztreonam], the MIC was 32 µg/mL in [4] (ATCC19606, read-out: MIC of Aztreonam, Aztreonam alone); 32 µg/mL in assay [4] (ATCC19606, read-out: MIC of aztreonam, Example 5 Table 20, GN_034); 16 µg/mL (≈ 36.7 µM) in assay [4] (setting [13]); 4 µg/mL in [5] (ATCC27853, read-out: MIC of Aztreonam); 64 µg/mL in [7] (ATCC700603, read-out: MIC of Aztreonam, Aztreonam alone). Further, the “Minimum Inhibitory Concentration (MIC)” value in assay [4] (setting [14]) was determined as 16 µg/mL.

Consider `CO/N=C(\C(=O)N[C@@H]1C(=O)N2C(C(=O)O)=C(COC(N)=O)CS[C@H]12)c1ccco1` [Cefuroxime], for which the MIC was 2 µg/mL in assay [3] (ATCC25922, read-out: MIC of Cefuroxime, Escherichia coli ATCC 25922); 64 µg/mL in assay [4] (ATCC19606, read-out: MIC of Cefuroxime, Acinetobacter baumannii ATCC 19606); 64 µg/mL in [4] (ATCC19606, read-out: MIC of cefuroxime, Example 2 Table 8, GN_034); more than 32 µg/mL in assay [4] (ATCC19606, read-out: Minimum Inhibitory Concentration (MIC), Example 2 Table 7, GN_034, compound alone, replicates); 256 µg/mL in assay [5] (ATCC27853, read-out: MIC of Cefuroxime); 16 µg/mL in assay [6] (ATCC 13883 / ATCC 700603, read-out: MIC of Cefuroxime, Klebsiella pneumoniae ATCC 700603). Further, the “Minimum Inhibitory Concentration (MIC)” value in [4] (Example 2 Table 7, GN_034, compound alone, replicates, listed as MCC_009386) was >32 μg/mL and 64 μg/mL (2×).

Take `CC(C)C[C@@H]1NC(=O)[C@@H](Cc2ccccc2)NC(=O)[C@H](CCN)NC(=O)[C@@H](NC(=O)[C@H](CCN)NC(=O)[C@@H](N)[C@@H](C)O)CCNC(=O)[C@H]([C@@H](C)O)NC(=O)[C@H](CCN)NC(=O)[C@H](CCN)NC1=O` [PMBN] (HELM PEPTIDE1{T.[Dab].[Dab].[Dab].[dF].L.[Dab].[Dab].T}$PEPTIDE1,PEPTIDE1,3:R3-9:R2$$$V2.0; N-terminus assumed; bridges inferred): the “antimicrobial activity alone” value in assay [8] (Example 10), in [9] (Example 10), in [10] (Example 10) and in assay [11] (Example 10) was “poor antimicrobial activity” each time. The MIC in [8] (setting [15]), in assay [9] (setting [15]), in assay [10] (setting [15]) and in [11] (setting [15]) was more than 32 µg/mL in each case. The “MIC of PMBN” value in assay [8] (Example 10 Table 39), in assay [9] (Example 10 Table 39), in assay [10] (Example 10 Table 39) and in assay [11] (Example 10 Table 39) was more than 32 µg/mL in each case.

On to `CO/N=C(\C(=O)N[C@@H]1C(=O)N2C(C(=O)[O-])=C(C[N+]3(C)CCCC3)CS[C@H]12)c1csc(N)n1` [Cefepime], for which the “MIC of Cefepime” value in assay [3] (Cefepime alone) came out at 0.062 µg/mL. The MIC was 0.031 µg/mL in assay [3] (ATCC25922, read-out: MIC of Cefepime, Cefepime alone); 16 µg/mL in assay [4] (ATCC19606, read-out: MIC of Cefepime, Cefepime alone); 16 µg/mL in assay [4] (ATCC19606, read-out: MIC of Cefepime, Example 5 Table 20, GN_034); 16 µg/mL (≈ 33.3 µM) in assay [4] (setting [13]); 256 µg/mL in assay [5] (ATCC27853, read-out: MIC of Cefepime); 1 µg/mL in assay [7] (ATCC700603, read-out: MIC of Cefepime). In addition, the “Minimum Inhibitory Concentration (MIC)” value in assay [4] (setting [14]) was 16 µg/mL.

With `C/C(=C\C(=O)OCCCCCCCCC(=O)O)C[C@@H]1OC[C@H](C[C@@H]2O[C@H]2[C@@H](C)[C@H](C)O)[C@@H](O)[C@H]1O` [Mupirocin], in [1], the MIC was 32 µg/mL (≈ 63.9 µM) and the “MIC (Test results)” value is 16 µg/mL (≈ 32 µM). In addition, in [2], the MIC was 128 µg/mL (≈ 256 µM) and the “MIC (Test results)” value was 128 µg/mL (≈ 256 µM).

For Gentamycin, the “MIC (Test results)” value in assay [1] was 1 μg/mL (2×) and 2 μg/mL and 0.5 μg/mL; in assay [2] it was 32 μg/mL (2×) and 64 μg/mL (2×).

With Colistin Sulfate, the “MIC (Test results)” value was >128 μg/mL (2×) and 128 μg/mL (2×) in assay [1]; 1 µg/mL in [2].

Colistin: the “MIC of Colistin” value in assay [3] (Escherichia coli ATCC 25922) is 0.50 µg/mL and 0.5 µg/mL; in assay [3] (Example 3 Table 12, GN_001), 0.5 µg/mL; in assay [4] (setting [16]), 1.00 µg/mL and 1 µg/mL; in assay [4] (Example 3 Table 12, GN_034), 1 µg/mL; in [5] (setting [12]), 1.00 µg/mL and 1 µg/mL; in [6] (setting [17]) it was 0.50 µg/mL and 0.5 µg/mL. The “Minimum Inhibitory Concentration (MIC)” value in [3] (Example 3 Table 11, GN_001, compound alone, replicates, listed as MCC_000094) was 0.25 μg/mL and 0.5 μg/mL and 2 μg/mL (2×); in assay [4] (Example 3 Table 11, GN_034, compound alone, replicates), 1 µg/mL. Moreover, the “activity alone” value in assay [1] (Example 11, Lipid A deficient GN_237) is “resistant”.

Turning to `CC(C)(O/N=C(\C(=O)N[C@@H]1C(=O)N2C(C(=O)[O-])=C(C[n+]3ccccc3)CS[C@H]12)c1csc(N)n1)C(=O)O` [Ceftazidime], the “MIC of Ceftazidime” value was determined as 0.062 µg/mL in assay [3] (Escherichia coli ATCC 25922), 4 µg/mL in assay [4] (setting [16]), 4 µg/mL in [5] (setting [12]) and 128 µg/mL in assay [6] (setting [17]). Moreover, the MIC in [3] (ATCC25922, read-out: MIC of Ceftazidime, Escherichia coli ATCC 25922) was 0.06 µg/mL; in assay [4] (ATCC19606, read-out: MIC of Ceftazidime, Acinetobacter baumannii ATCC 19606), 4 µg/mL; in [5] (ATCC27853, read-out: MIC of Ceftazidime), 4 µg/mL; in [6] (ATCC 13883 / ATCC 700603, read-out: MIC of Ceftazidime, Klebsiella pneumoniae ATCC 700603), 64 µg/mL.
